Data on eight compounds can be found in US9969742B2, “Imidazotriazinone compounds” (Ironwood Pharmaceuticals, Inc., priority 2012, dated 2018).

Holding throughout (type): biochemical
Experiment [1] concerns the target T1, PDE1B (Homo sapiens, UniProt Q01064).
T1 construct: purchased Reaction Biology Corporation, Malvern, Pa
In words: Phosphodiesterase enzyme screening assay, PDE1B. From the text: (§1) Compounds of the invention were screened against PDE1A, PDE1B, PDE2A, PDE3A, PDE3B, PDE4A1A, PDE4B1, PDE4D3, PDE5A1, PDE6C, PDE7A, PDE8A1, PDE9A2, PDE10A2 AND PDE11A isoforms of the phosphodiesterase enzyme to determine activity and overall selectivity through comparative analysis. […] Where 8-methoxy-IBMX and Zaprinast were used as reference inhibitors.
(§2) The phosphodiesterase enzyme isoforms were obtained from a commercial retailer (Reaction Biology Corporation, Malvern, Pa.) for use in the instant screening assay.
(§3) The analysis was completed using the Caliper LabChip 3000 and a 12-sipper LabChip. LabChip assays are separations-based, meaning that the product and substrate are electrophoretically separated, thereby minimizing interferences and yielding the highest data quality available on any screening platform. […] High Z′ values, few false positives, few false negatives and analytical quality reproducibility are the reasons cited for the increasing reliance on the LabChip assays.
(§4) The off-chip incubation mobility-shift phosphodiesterase assay uses a microfluidic chip to measure the conversion of a fluorescent cyclic AMP substrate to a 5′-AMP product, or a cyclic GMP substrate to a 5′-GMP product. The reaction mixture, from a microtiter plate well, is introduced through a capillary sipper onto the chip, where the fluorescent substrate and product are separated by electrophoresis and detected via laser-induced fluorescence. […] The precision of microfluidics allows researchers to detect subtle interactions between drug candidates and therapeutic targets.
(§5) Reactions were carried out in 100 mM HEPES (pH 7.5), 5 mM MgCl2, 1 mM DTT, 0.003% Brij, 4.0 μM cGMP substrate. The reaction was started by addition of cGMP or cAMP and incubated for 1 hour at R.T. The reaction was terminated by the addition of stop buffer containing 100 mM HEPES (pH 7.5), 15 mM EDTA, 0.015% Brij-35, 5% DMSO. Cyclic AMP/GMP substrate and 5′-AMP/5′-GMP product were separated by charge using electrophoretic mobility shift. Product formed was compared to control wells to determine inhibition or enhancement of enzyme activity.
(§6) Data points were averages of quadruplicate wells and error bars represented the SEM for each point.

The target of experiment [2] is T2, PDE1A (Homo sapiens, UniProt P54750).
T2 construct: purchased Reaction Biology Corporation, Malvern, Pa
T2 sequence (P54750 whole entry): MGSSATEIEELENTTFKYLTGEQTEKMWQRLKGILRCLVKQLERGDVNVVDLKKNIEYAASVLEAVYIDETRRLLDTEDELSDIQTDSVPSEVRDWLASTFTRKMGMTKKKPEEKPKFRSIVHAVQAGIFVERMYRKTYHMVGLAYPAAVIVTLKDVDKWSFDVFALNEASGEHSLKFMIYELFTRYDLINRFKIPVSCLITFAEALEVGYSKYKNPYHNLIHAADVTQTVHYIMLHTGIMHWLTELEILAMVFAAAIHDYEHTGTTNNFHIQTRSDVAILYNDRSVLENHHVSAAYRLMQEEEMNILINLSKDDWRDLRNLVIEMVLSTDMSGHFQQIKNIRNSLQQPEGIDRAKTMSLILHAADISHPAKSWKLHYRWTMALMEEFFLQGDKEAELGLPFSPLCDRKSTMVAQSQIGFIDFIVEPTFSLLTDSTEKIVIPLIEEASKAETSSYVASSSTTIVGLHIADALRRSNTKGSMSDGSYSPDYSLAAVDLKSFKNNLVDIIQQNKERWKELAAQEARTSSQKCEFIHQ
In words: Phosphodiesterase enzyme screening assay, PDE1A.
From the text: as §1, §2, §3, §4, §5, §6

Experiment [3] has as its target T3, PDE9A2 (Homo sapiens, UniProt O76083).
T3 construct: purchased Reaction Biology Corporation, Malvern, Pa
In words: Phosphodiesterase enzyme screening assay, PDE9A2. To be noted: 4.0 μM cGMP substrate, 1 hour at R.T., read-out: Band (PDE9A2 IC50). The procedure, abridged: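 Human PDE isoforms were incubated 1 h at room temperature with 4.0 μM fluorescent cGMP substrate in 100 mM HEPES pH 7.5, 5 mM MgCl2, 1 mM DTT, 0.003% Brij. EDTA stop buffer ended reactions, and substrate and 5′-GMP product were separated by microfluidic electrophoretic mobility shift with laser-induced fluorescence. Inhibition was calculated against control wells.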

The mark [4] stands for this setting: Table 1, ratio of IC50 values, value greater than 1 indicates greater selectivity for PDE9A2.

Read-outs that look alike come from different tables or passages of the source. Bounds are passed on as bounds.

T1 sequence (Q01064 whole entry): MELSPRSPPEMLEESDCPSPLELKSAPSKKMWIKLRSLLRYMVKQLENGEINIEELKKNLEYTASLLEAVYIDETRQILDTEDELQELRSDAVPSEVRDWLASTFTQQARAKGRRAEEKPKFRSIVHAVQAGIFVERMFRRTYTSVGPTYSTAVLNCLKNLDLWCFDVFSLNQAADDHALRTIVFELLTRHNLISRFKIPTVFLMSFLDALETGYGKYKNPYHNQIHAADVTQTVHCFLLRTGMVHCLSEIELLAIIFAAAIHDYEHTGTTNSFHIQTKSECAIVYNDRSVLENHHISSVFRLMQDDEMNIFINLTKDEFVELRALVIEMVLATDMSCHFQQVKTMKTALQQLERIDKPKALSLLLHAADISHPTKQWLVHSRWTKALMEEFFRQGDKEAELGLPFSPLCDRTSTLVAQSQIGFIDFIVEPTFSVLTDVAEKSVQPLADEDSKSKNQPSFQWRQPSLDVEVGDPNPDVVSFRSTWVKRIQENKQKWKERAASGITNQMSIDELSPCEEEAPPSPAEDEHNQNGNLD
T3 sequence (O76083 1-533 isoform O76083-2): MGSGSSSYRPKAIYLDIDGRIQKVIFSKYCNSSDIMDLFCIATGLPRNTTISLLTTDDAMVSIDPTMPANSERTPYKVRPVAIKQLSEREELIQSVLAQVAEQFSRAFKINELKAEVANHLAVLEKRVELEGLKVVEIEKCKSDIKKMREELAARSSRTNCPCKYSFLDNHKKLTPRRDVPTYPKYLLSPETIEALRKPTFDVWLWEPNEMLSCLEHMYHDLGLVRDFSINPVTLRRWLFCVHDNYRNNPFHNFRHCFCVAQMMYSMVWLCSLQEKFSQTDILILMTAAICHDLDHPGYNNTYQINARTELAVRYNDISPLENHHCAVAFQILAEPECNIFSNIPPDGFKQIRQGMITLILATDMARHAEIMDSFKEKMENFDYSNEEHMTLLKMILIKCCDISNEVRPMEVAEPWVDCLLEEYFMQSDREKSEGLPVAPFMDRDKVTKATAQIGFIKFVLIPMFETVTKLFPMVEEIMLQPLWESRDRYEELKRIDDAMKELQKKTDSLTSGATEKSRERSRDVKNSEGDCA

In general, IC50 refers to the point on the concentration scale where inhibition reaches its midpoint. As for `C[C@@H]1CN(Cc2cn3ncccc3n2)C[C@H]1c1nn2c(C3CCOCC3)ncc2c(=O)[nH]1` (relative stereo) [(+)-2-((3,4-trans)-1-(imidazo[1,2-b]pyridazin-2-ylmethyl)-4-methylpyrrolidin-3-yl)-7-(tetrahydro-2H-pyran-4-yl)imidazo[5,1-f][1,2,4]triazin-4(3H)-one], in experiment [1] (setting [4]), the “PDE1B selectivity (versus PDE9A2)” value came out at 1413. Besides, the “PDE1A selectivity (versus PDE9A2)” value in experiment [2] (setting [4]) was found to be 1005. The IC50 in experiment [3] (Table 1, 10 concentrations) was less than 1000 nM.

Regarding `C[C@@H]1CN(Cc2ncccn2)C[C@H]1c1nn2c(C3CCOCC3)ncc2c(=O)[nH]1` (relative stereo) [(+)-2-((3,4-trans)-4-, (+)-2-((3,4-trans)-4-methyl-1-(pyrimidin-2-ylmethyl)pyrrolidin-3-yl)-7-(tetrahydro-2H-pyran-4-yl)imidazo[5,1-f][1,2,4]triazin-4(3H)-one], the “PDE1B selectivity (versus PDE9A2)” value in experiment [1] (ratio of IC50 values, PDE1B versus PDE9A2, value greater than 1 = greater selectivity for PDE9A2) is reported as 456. Besides, the “PDE1A selectivity (versus PDE9A2)” value in experiment [2] (ratio of IC50 values, PDE1A versus PDE9A2, value greater than 1 = greater selectivity for PDE9A2) worked out at 214. Moreover, the half-maximal inhibitory concentration (IC50) in experiment [3] (Table 3) is less than 1000 nM.

As for `C[C@@H]1CN(Cc2ccc3cccnc3c2)C[C@H]1c1nn2c(C3CCOCC3)ncc2c(=O)[nH]1` (relative stereo) [(+)-2-((3,4-trans)-4-methyl-1-(quinolin-7-ylmethyl)pyrrolidin-3-yl)-7-(tetrahydro-2H-pyran-4-yl)imidazo[5,1-f][1,2,4]triazin-4(3H)-one], in experiment [1] (setting [4]), the “PDE1B selectivity (versus PDE9A2)” value worked out at 5180. For the same compound, the “PDE1A selectivity (versus PDE9A2)” value in experiment [2] (setting [4]) is reported as 5020. In addition, the half-inhibitory concentration (IC50) in experiment [3] (Table 1, 10 concentrations) is less than 1000 nM.

As for `CC1CN(Cc2cccc(Cl)c2Cl)CC1c1nn2c(C3CCOCC3)ncc2c(=O)[nH]1` (single isomer, unassigned; (+)) [(+)-2-((3,4-trans)-1-(2,3-dichlorobenzyl)-4-methylpyrrolidin-3-yl)-7-(tetrahydro-2H-pyran-4-yl)imidazo[5,1-f][1,2,4]triazin-4(3H)-one], the “PDE1B selectivity (versus PDE9A2)” value in experiment [1] (ratio of IC50 values PDE1B / PDE9A2, value greater than 1 = greater selectivity for PDE9A2) was determined as 199. In experiment [2] (ratio of IC50 values PDE1A / PDE9A2, value greater than 1 = greater selectivity for PDE9A2), the “PDE1A selectivity (versus PDE9A2)” value worked out at 195. Further, in experiment [3], the IC50 was less than 1000 nM.

Turning to `CC1CN(Cc2cccc(F)c2F)CC1c1nn2c(C3CCOCC3)ncc2c(=O)[nH]1` (single isomer, unassigned; (+)) [(+)-2-((3,4-trans)-1-(2,3-difluorobenzyl)-4-methylpyrrolidin-3-yl)-7-(tetrahydro-2H-pyran-4-yl)imidazo[5,1-f][1,2,4]triazin-4(3H)-one], in experiment [1] (setting [4]), the “PDE1B selectivity (versus PDE9A2)” value stood at 218. In addition, in experiment [2] (setting [4]), the “PDE1A selectivity (versus PDE9A2)” value is given as 159. In addition, in experiment [3] (Table 1, 10 concentrations), the IC50 was less than 1000 nM.

Regarding `CC1CN(Cc2ccc(Cl)cc2Cl)CC1c1nn2c(C3CCOCC3)ncc2c(=O)[nH]1` (single isomer, unassigned; (+)) [(+)-2-((3,4-trans)-1-(2,4-dichlorobenzyl)-4-methylpyrrolidin-3-yl)-7-(tetrahydro-2H-pyran-4-yl)imidazo[5,1-f][1,2,4]triazin-4(3H)-one], the “PDE1B selectivity (versus PDE9A2)” value in experiment [1] (setting [4]) amounted to 994. Besides, the “PDE1A selectivity (versus PDE9A2)” value in experiment [2] (setting [4]) was 598. For the same compound, the IC50 in experiment [3] (Table 1, 10 concentrations) is less than 1000 nM.

For the compound `CC1CN(C(=O)c2ccccc2)CC1c1nn2c(C3CCOCC3)ncc2c(=O)[nH]1` (single isomer, unassigned; (-)) [(−)-2-((3,4-trans)-1-benzoyl-4-methylpyrrolidin-3-yl)-7-(tet] [(−)-2-((3,4-trans)-1-benzoyl-4-methylpyrrolidin-3-yl)-7-(tetrahydro-2H-pyran-4-yl)imidazo[5,1-f][1,2,4]triazin-4(3H)-one], the “PDE1B selectivity (versus PDE9A2)” value in experiment [1] (setting [4]) is on record as 32. Also, the “PDE1A selectivity (versus PDE9A2)” value in experiment [2] (setting [4]) was 26.

Turning to `Cc1cc(F)ccc1-c1ncc2c(=O)[nH]c(C3CN(Cc4ncccn4)CC3C)nn12` (single isomer, unassigned; (-)) [(−)-7-(4-fluoro-2-methylphenyl)-2-((3,4-trans)-4-methyl-1-(pyrimidin-2-ylmethyl)pyrrolidin-3-yl)imidazo[5,1-f][1,2,4]triazin-4(3H)-one], the “PDE1B selectivity (versus PDE9A2)” value in experiment [1] (setting [4]) was determined as 175. The “PDE1A selectivity (versus PDE9A2)” value in experiment [2] (setting [4]) turned out to be 132.
